Source: patent publication US5352667A, “Non-peptidic surrogates of the Arg-Gly-Asp sequence and pharmaceutical compositions comprising them” (priority 1991, dated 1994)

What was measured:
[1] = tested on: CD4^+ T cell adhesion to FN; experiment: Inhibition of activated CD4+ T cell adhesion to FN; assay type: cell-based, human; conditions: Table 1B, surrogates 0.2 mM; for % Inhibition of adhesion: CD4^+ T cell to FN; for % Adhesion of activated CD4^+ to FN: none 65
Description: (§1) To examine the adhesive properties of the T cells, 1 μg/50 μl/well of either fibronectin (FN) (Sigma), the 120 kD cell attachment fragment of FN (Telios Pharm. Inc. San Diego, CA), or laminin (LN) (Sigma), were added to 96-flat bottom microtiter-wells for 12 h. Unbound proteins were then washed away and remaining binding sites were blocked with 0.1% bovine serum albumin (BSA) added to the wells for 2 h and washed. CD4+T cells were purified from peripheral blood mononuclear leukocytes obtained from healthy human donors. The mononuclear cells were isolated using a Ficoll gradient, washed and incubated in RPMI supplemented with 10% fetal calf serum (FCS) and antibiotics in petri dishes at 37° C. humidified CO2 incubator. After 2 h, the non-adherent cells were isolated and applied on nylon-wool columns (1.5 h). CD4^+ T cells were then negatively selected by exposure of the cells to a cocktail of anti-CD8, CD19, and CD14 monoclonal antibodies (mAb) conjugated to magnetic-beads (Advanced Magnetics, MA). Unbound cells were recovered and their phenotype was examined. Purity of the CD4^+ T cells was always greater than 92% as determined by FACScan.
The purified CD4^+ T cells were radioactively labeled with ^51 [Cr](New England Nuclear) in RPMI +20% FCS for 2 h and washed. The cells were counted and seeded (0.2×10^5 cells) on the precoated microtiter wells in the presence or the absence of the various inhibitors. Coating was made either with FN, the 120 kD cell-attachment fragment of FN or with control adhesive protein laminin (LN). The inhibitors were various surrogates according to the invention, other test molecules or mAb. After 30 min incubation (in […] CO2 -- humidified incubator) the T cells were activated by 10 ng/ml phorbol myristate acetate (PMA) and the percent of T cells attached to the protein substrates was measured. Unbound cells were washed away after 20-30 min, the bound cells were lysed and their radioactivity was measured using radioactive counter. The amount of the radioactivity of the cell lysates represent the matrix-adherent cells and percent binding was calculated in comparison to the total radioactivity added to the wells. Activated T cell adhesion to control wells or to wells coated with BSA was always 2-5%; the level of adhesion of the non-activated T cells was always below 5%. Where indicated, 1/200 diluted mAb anti-CD29 (anti-β1 mAb Serotec, GB), or 1/400 diluted anti-VLA5 (the β1α5 FN-integrin receptor) mAb (Telios Pharm. Inc. San Diego), or 0.2 mM of RGD, GRGDSPK or GRGESP peptides (Sigma) were used. […] The results shown in Tables 1A, 1B and 1C represent data obtained from several experiments that produced essentially similar results.
In a second series of experiments, FN was used in the adhesion assay carried out with the RGD surrogates NS-8, NS-11 and NS-15 in comparison to RGDS peptide.
In a third series of experiments, FN was used in the adhesion assay with the surrogates SF-6,5 and NS-11 and compared to the peptide GRGDSP.

[2] = target: T1, platelet GPIIb-IIIa receptor (Homo sapiens, UniProt P05106+P08514); experiment: Inhibition of ADP-induced platelet aggregation (platelet rich plasma); assay type: cell-based; conditions: FIG. 4; fixed sub-saturating 0.5 mM / 10μg/ml; 4 experiments
T1 construct: Platelet concentrates were prepared from human whole blood; endogenous in cells; host or cells: human platelets in platelet rich plasma
Description: To investigate the inhibitory role of the RGD analogues on adhesion, the platelet GPIIb-IIIa receptor which mediates platelet aggregation upon activation was used as a model.
Platelet concentrates were prepared from human whole blood in 10% adenine-citrate-dextrose in Fenwall bags (Baxter Travenol, Israel) followed by standard AABB protocol. Platelet rich plasma was prepared by centrifugation (2500 rpm for 5 min). Samples of platelets were counted in a Minos AST Cell Counter (Levoiselle, France). Cell aggregation was induced by […] and monitored at […] in a 4-channel Aggregometer (Bio-Data, Hatboro, Pa.). To evaluate the effect of the various RGD peptides and the peptide analogues, the platelet rich plasma was pre-incubated with the various inhibitors for 10 min at 37° C. with 10μsolutions followed by the induction of aggregation.
To examine the specificity of the inhibitory effect of the RGD-analogues on platelet aggregation, the cells were treated with various peptidic (RGD and GRGDSP) and non-peptidic (SF-6,6, SF-6,5 and AC-15) RGD analogues used at a fixed sub-saturating concentration of 0.5 mM.
An in vitro assay as described in Example 17 was carried out with the compound NS-11 to examine its ability to interfere with platelet aggregation, and compared it to the SF-6,5 surrogate.
Platelet rich plasma (PRP) was prepared from acid/citrate/dextrose anti-coagulated fresh human blood by differential centrifugation. Platelet aggregation was induced by […] and monitored at 695 nm by a 4-channel Aggregometer (Bio-Data, PA). To evaluate the effect of the RGDS peptide and the NS-8, NS-11 and NS-15 analogs, the PRP was preincubated with the inhibitors for 10 minutes at 37° C., prior to the induction of aggregation. […] In fact, 50% inhibition of platelet aggregation was achieved using a 30-fold lower concentration of NS-11 than that of RGDS.

[3] = tested on: CD4^+ T cell adhesion to 120 kD fragment of FN; experiment: Inhibition of activated CD4+ T cell adhesion to 120 kD fragment of FN; assay type: cell-based, human; conditions: for % inhibition of adhesion of activated CD4^+ T cell to 120 kD fragment of FN / % Adhesion of activated CD4^+ T cell to 120 kD fragment of FN: 0.2 mM peptides and surrogates, mAb anti-CD29 1/200, anti-VLA5 1/400 diluted; for % inhibition of adhesion of activated CD4^+ T cell to 120 kD fragment of FN: * P<0.05; for % Adhesion of activated CD4^+ T cell to 120 kD fragment of FN: PMA activated, none 43 ± 4; for T cell adhesion to FN, in words: 0.2 mM, 120 kD fragment of FN
Description: as §1
(§2) The purified CD4^+ T cells were radioactively labeled with ^51 [Cr](New England Nuclear) in RPMI +20% FCS for 2 h and washed. The cells were counted and seeded (0.2×10^5 cells) on the precoated microtiter wells in the presence or the absence of the various inhibitors. Coating was made either with FN, the 120 kD cell-attachment fragment of FN or with control adhesive protein laminin (LN). The inhibitors were various surrogates according to the invention, other test molecules or mAb. After 30 min incubation (in […] CO2 -- humidified incubator) the T cells were activated by 10 ng/ml phorbol myristate acetate (PMA) and the percent of T cells attached to the protein substrates was measured. Unbound cells were washed away after 20-30 min, the bound cells were lysed and their radioactivity was measured using radioactive counter. The amount of the radioactivity of the cell lysates represent the matrix-adherent cells and percent binding was calculated in comparison to the total radioactivity added to the wells. Activated T cell adhesion to control wells or to wells coated with BSA was always 2-5%; the level of adhesion of the non-activated T cells was always below 5%. Where indicated, 1/200 diluted mAb anti-CD29 (anti-β1 mAb Serotec, GB), or 1/400 diluted anti-VLA5 (the β1α5 FN-integrin receptor) mAb (Telios Pharm. Inc. San Diego), or 0.2 mM of RGD, GRGDSPK or GRGESP peptides (Sigma) were used. The tested non-peptidic surrogates, 0.2 mM in PBS, were used to pretreat the T cells for 15 min before seeding the cells *, P<0.05. The results shown in Tables 1A, 1B and 1C represent data obtained from several experiments that produced essentially similar results.
(§3) The four RGD surrogates, AC-4.

[4] = tested on: B16-melanoma cells adhesion to VN; experiment: Inhibition of B16-melanoma cell adhesion to VN; assay type: cell-based, murine; conditions: surrogates 0.2 mM; for % inhibition of adhesion of B16-melanoma cells to VN: * P<0.05; for % Adhesion of B16-melanoma cells to VN: none 68 ± 5
Description: (§4) To examine the adhesive properties of tumor cells, 1 μg/50μ/well of FN or 0.3μg/well of VN were added to 96-flat bottom microtiter wells for 12 h. Unbound proteins were then washed away and remaining binding sites were blocked with 0.1% BSA added to the wells for 2 h and washed. Murine B16-melanoma F-1 cells were metabolically labeled with ^35 S-methionine (New England Nuclear) for 2 h, chased for 18 h and extensively washed. The cell suspension was resuspened in RPMI supplemented with 1% BSA containing 1 mM CaCl2 and MgCl2. Tumor cell adhesion to control wells or to wells coated with BSA was always 2-5%. The tested non-peptidic surrogates, 0.2 mM in PBS, were used to pretreat the tumor cells for 15 min before seeding the cells *, P<0.05.
(§5) In a first series of experiments, the potential inhibitory action of the RGD surrogate SF-6,5 on adhesion of B16 melanoma cells to FN or VN was compared to that of the RGE surrogate SF-6,6 and to that of RGD, GRGDSPK and GRGESP peptides.

[5] = tested on: CD4^+ T cell adhesion to LN; experiment: Inhibition of activated CD4+ T cell adhesion to laminin (LN); assay type: cell-based, human; conditions: for % inhibition of adhesion of activated CD4^+ T cell to LN / % Adhesion of activated CD4^+ T cell to LN: 0.2 mM peptides and surrogates, mAb anti-CD29 1/200, anti-VLA5 1/400 diluted; for % inhibition of adhesion of activated CD4^+ T cell to LN: * P<0.05; for % Adhesion of activated CD4^+ T cell to LN: none 55 ± 5
Description: as §1, §2, §3

[6] = tested on: B16-melanoma cells adhesion to FN; experiment: Inhibition of B16-melanoma cell adhesion to FN; assay type: cell-based, murine; conditions: surrogates 0.2 mM; for % inhibition of adhesion of B16-melanoma cells to FN: * P<0.05; for % Adhesion of B16-melanoma cells to FN: none 75 ± 5
Description: as §4, §5
In a further set of experiments, the inhibitory activity of the RGD surrogates SF-6,5 and NS-11 on the adhesion of B16 murine melanoma cells to FN was compared to that of the GRGDSP peptide.

T1 sequence (P08514 32-887 limits assumed): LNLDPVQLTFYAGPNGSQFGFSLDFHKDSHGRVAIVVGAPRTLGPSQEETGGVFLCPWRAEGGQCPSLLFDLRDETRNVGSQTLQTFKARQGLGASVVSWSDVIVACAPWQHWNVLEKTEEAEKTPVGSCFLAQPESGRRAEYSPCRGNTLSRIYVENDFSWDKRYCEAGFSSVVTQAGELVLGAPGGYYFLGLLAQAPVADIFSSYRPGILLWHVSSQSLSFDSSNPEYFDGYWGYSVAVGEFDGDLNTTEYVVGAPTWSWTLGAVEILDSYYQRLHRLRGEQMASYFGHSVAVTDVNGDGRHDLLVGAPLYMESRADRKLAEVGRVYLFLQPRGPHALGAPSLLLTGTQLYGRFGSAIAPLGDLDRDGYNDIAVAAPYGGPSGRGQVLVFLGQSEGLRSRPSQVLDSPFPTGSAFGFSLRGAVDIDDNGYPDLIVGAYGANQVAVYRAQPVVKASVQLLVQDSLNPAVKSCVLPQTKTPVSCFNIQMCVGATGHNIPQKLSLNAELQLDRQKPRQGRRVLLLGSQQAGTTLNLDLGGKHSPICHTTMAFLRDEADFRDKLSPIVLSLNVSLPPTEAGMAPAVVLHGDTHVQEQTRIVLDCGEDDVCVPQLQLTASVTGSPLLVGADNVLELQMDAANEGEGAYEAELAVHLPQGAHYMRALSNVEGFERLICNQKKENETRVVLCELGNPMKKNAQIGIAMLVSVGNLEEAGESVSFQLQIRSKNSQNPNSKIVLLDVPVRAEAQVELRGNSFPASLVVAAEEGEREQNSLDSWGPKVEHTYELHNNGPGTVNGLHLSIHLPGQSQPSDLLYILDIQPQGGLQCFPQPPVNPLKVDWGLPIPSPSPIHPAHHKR
T1 sequence (P08514 891-1039 limits assumed): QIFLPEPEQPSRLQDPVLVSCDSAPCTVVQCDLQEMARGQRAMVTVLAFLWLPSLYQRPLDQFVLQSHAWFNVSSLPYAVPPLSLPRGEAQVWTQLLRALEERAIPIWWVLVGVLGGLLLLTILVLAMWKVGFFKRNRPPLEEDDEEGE
T1 sequence (P05106 27-788): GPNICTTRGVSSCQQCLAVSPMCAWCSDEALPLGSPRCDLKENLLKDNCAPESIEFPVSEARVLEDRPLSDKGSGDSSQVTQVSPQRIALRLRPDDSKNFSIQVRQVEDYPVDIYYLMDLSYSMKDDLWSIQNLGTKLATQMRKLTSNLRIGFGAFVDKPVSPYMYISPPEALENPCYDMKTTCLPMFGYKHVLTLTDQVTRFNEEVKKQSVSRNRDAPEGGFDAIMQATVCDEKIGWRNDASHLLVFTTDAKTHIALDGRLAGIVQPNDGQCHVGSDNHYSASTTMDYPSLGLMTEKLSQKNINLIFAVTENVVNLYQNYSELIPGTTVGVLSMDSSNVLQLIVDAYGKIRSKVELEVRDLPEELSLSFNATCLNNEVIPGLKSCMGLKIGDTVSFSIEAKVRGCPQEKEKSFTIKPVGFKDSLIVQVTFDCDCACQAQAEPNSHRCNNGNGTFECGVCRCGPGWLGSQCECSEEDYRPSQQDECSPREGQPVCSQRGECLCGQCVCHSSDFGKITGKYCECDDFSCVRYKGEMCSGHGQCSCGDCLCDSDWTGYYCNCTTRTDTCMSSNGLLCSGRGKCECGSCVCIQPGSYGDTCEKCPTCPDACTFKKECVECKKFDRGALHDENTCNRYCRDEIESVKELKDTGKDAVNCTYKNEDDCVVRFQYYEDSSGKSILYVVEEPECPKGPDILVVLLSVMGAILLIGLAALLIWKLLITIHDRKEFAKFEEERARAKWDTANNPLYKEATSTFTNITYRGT

| Compound | % Inhibition of adhesion [1] | % Adhesion of activated CD4^+ to FN [1] | Inhibition of platelet aggregation at fixed concentration, in words [2] | % inhibition of adhesion of activated CD4^+ T cell to 120 kD fragment of FN [3] | % Adhesion of activated CD4^+ T cell to 120 kD fragment of FN [3] | T cell adhesion to FN, in words [3] | % inhibition of adhesion of B16-melanoma cells to VN [4] | % Adhesion of B16-melanoma cells to VN [4] | % inhibition of adhesion of activated CD4^+ T cell to LN [5] | % Adhesion of activated CD4^+ T cell to LN [5] | % inhibition of adhesion of B16-melanoma cells to FN [6] | % Adhesion of B16-melanoma cells to FN [6] | T cell adhesion to LN, in words ([5]; 0.2 mM) |
| --- | --- | --- | --- | --- | --- | --- | --- | --- | --- | --- | --- | --- | --- |
| N=C(N)NCCC(=O)Nc1cccc(C(=O)NCCC(=O)O)c1 [NS-15] | 59% | 27% |  |  |  |  |  |  |  |  |  |  |  |
| Arg-Gly-Asp [RGD] |  |  | not an effective inhibitor | 12% | 38 ± 3% | specifically inhibited | 0% | 66 ± 6% | 0% | 57 ± 3% | 7% | 70 ± 3% |  |
| N=C(N)NCCCCC(=O)NCC(=O)NCCC(=O)O [AC-4, 4,7-diaza-5,8-dioxo-12-quanidino-dodecanoic acid] |  |  |  | 47% | 16 ± 3% | inhibited T cell adhesion to FN |  |  | 0% | 57 ± 4% |  |  |  |
| RGDS [reference compound] | 67% | 22% |  |  |  |  |  |  |  |  |  |  |  |
| NCCCCCC(=O)NCCCCC(=O)O [SFN-70, reference compound] |  |  |  | 0% | 42 ± 5% | did not inhibit T cell adhesion to both FN and LN |  |  | 0% | 49 ± 6% |  |  | did not inhibit T cell adhesion to both FN and LN |
| N=C(N)NCCCCC(=O)N1CCCCC1C(=O)NCCC(=O)O (stereo not shown) [NS-8] | 31% | 45% |  |  |  |  |  |  |  |  |  |  |  |
| GRGESP |  |  |  | 0% | 46 ± 3% |  | 0% | 66 ± 8% | 0% | 52 ± 3% | 0% | 73 ± 5% |  |
| N=C(N)NCCCCC(=O)NCCCCCC(=O)O [AC-15, 7-aza-8-oxo-12-quanidino-dodecanoic acid] |  |  | even higher than that of the GRGDSPK peptide | 19% | 35 ± 5% | inhibited T cell adhesion to FN |  |  | 0% | 52 ± 4% |  |  |  |
| N=C(N)NCCCC(=O)NCCC(=O)NCCC(=O)O [AC-14, 4,8-diaza-5,9-dioxo-12-quanidino-dodecanoic acid] |  |  |  | 42% | 25 ± 4% | inhibited T cell adhesion to FN |  |  | 0% | 55 ± 6% |  |  |  |
